In the oligonucleotide strings, read from the 5' end, every base follows the letter of its sugar. An asterisk marks phosphorothioate; unmarked linkages are phosphodiester. Other units and linkages are bracketed, terminal groups are in braces. A string of capitals states the bases alone. m = 2'-O-methyl

The source of these data is US20250057971A1, “TARGETED SAPONIN-NUCLEIC ACID CONJUGATES FOR TREATMENT OF MUSCLE WASTING DISORDERS” (SAPREME TECHNOLOGIES B.V., priority 2021, published 2025).

For one data set, the system named is dystrophin exon 23. The data set can be described thus: Exon 23 skip analysis in differentiated murine C2C12 myotubes. It is filed as cell-based, mouse. As to the method: Murine myoblast cell line C2C12 was maintained in 10% FBS DMEM medium+Pen/Strep and plated at 240,000 cells per well (cpw) in 24-well plates or 40,000 cpw in 96-well plates (wp) in maintenance medium (10% FBS in DMEM medium+Pen/Strep) and incubated at 37° C. with 5% CO2. Twenty-four hours after seeding, cells were switched to differentiation media (2% horse serum in DMEM) and incubated for 3 days before refreshing the medium. After another 24 hours, medium was refreshed again and compounds were added and incubated for 48 hours. Differentiation medium was then refreshed (without compounds), and cells were incubated for another 24 hours. At 72 hours total post treatment, cells in the 24-wp were harvested for exon skip analysis and the cell viability was assessed on the 96-wp.
For analysis of skip from murine cell lines, cells were harvested and RNA was isolated using 0.5 ml TRIzol™ Reagent (Thermo Scientific) per sample, according to the manufacturer's instruction. […] Samples were mixed with 2 μl 6×loading buffer, then 16 μl were loaded onto an 2% agarose gel and ran for 60-90 min at 80 V. Gels were imaged and band intensities were quantified with a ChemiDoc™ XRS+System and Image Lab™ Software (BioRad). […]

In a further data set the test system is dystrophin exon 51. Kind of data set: Exon 51 skip analysis in differentiated human myotubes from a non-DMD (healthy) donor (KM155). It is filed as cell-based. The conditions noted are these: alone or + 4 μM SO1861-EMCH (see label), 72 hrs. The method, then: Immortalized human myoblasts from non-DMD donors (KM155) and myoblasts from a DMD-affected donor (DM8036) were cultured in Skeletal Muscle Cell Growth Medium (PromoCell, Germany) with supplementary pack according to manufacturer's instructions, further supplemented with 15% fetal bovine serum (Gibco, United Kingdom) and 0.5% gentamicin (Sigma-Aldrich, USA). For differentiation, cells were seeded on a 0.5% gelatin-coated surface, and at ˜70-80% confluence, the proliferation medium was replaced by DMEM (Gibco) supplemented with 2% FBS (Gibco), 2% GlutaMAX, and 1% glucose (Sigma-Aldrich) and 0.5% gentamycin. Treatments were started after at least 3 days up to a maximum of 5 days of differentiation (based on the presence of differentiated myotubes).
RNA was isolated with the TRIsure Isolation Reagent (Bioline) and chloroform extraction; isopropanol precipitation of RNA from the aqueous phase was performed as known to someone skilled in the art. For cDNA synthesis, 1000 ng of total RNA was used and diluted in an appropriate amount of RNase-free water to yield 8 μl RNA dilution. The priming premixed contained 1 μl dNTP mix (10 mM each) and 1 μl specific reverse primer (for KM155, h53R 5′-[…]-3′ [SEQ ID NO: 5]; for DM8036, h55R 5′-[…]-3′ [SEQ ID NO: 6]). This mixture was heated for 5 min at 70° C., then chilled on ice for at least 1 min. A reaction mixture was prepared containing 0.5 μl rRNasin (Promega), 4.0 μl RT buffer, 1.0 μl Tetro RT (Bioline), and 4.5 μl RNase-free water, and was added to the chilled mixture to yield a total volume of 20 μl per reaction. The RT-PCR was run for 60 min at 42° C., then 5 min at 85° C., and chilled on ice. For skip analysis, a nested PCR approach was followed. To this end, in the first PCR, 3 μl cDNA were added to a mix of 2.5 μl 10×SuperTaq PCR buffer, 0.5 μl dNTP mix (10 mM each), 0.125 μl Taq DNA polymerase TAQ-RO (5 U/μl; Roche) 16.875 μl RNase-free water and 1 μl ([…]) of each primer flanking the targeted exons were used: for KM155, h48F 5′-[…]-3′ [SEQ ID NO: 7] and h53R 5′-[…]-3′ [SEQ ID NO: 5]; for DM8036, h47F2 5′-[…]-3′ [SEQ ID NO: 8] and h54R 5′-[…]-3′ [SEQ ID NO: 9]. These samples were subjected to a PCR run of 5 min at 94° C., then 25 cycles with 40 sec at 94° C., 40 sec at 60° C., 180 sec at 72° C., after which for 7 min at 72° C. For the second PCR, 1.5 μl PCR1 sample were added to a mix of 5 μl 10×SuperTaq PCR buffer, 1 μl dNTP mix (10 mM each), 0.25 μl Taq DNA polymerase TAQ-RO (5 U/μl; Roche), 38.25 μl RNase-free water and 2 μl ([…]) of each primer flanking the targeted exons were used: for KM155, h49F 5′-[…]-3′ [SEQ ID NO: 10] and h52R2 5′-[…]-3′ [SEQ ID NO: 11]; for DM8036, h47F 5′-[…]-3′ [SEQ ID NO: 12] and h53R 5′-[…]-3′ [SEQ ID NO: 13]. These samples were subjected to a PCR run of 5 min at 94° C., then 32 cycles with 40 sec at 94° C., 40 sec at 60° C., 60 sec at 72° C., after which for 7 min at 72° C. Exon skipping levels were quantified with the Femto Pulse System using the Ultra Sensitivity NGS Kit (Agilent), according to the manufacturer's instructions. Alternatively, the specific PCR fragments were analyzed using Bioanalyzer 2100 with DNA1000 chip (lab-on-a-chip; Agilent), or separated on 2% agarose gels run at 120 V. Gels were imaged and band intensities were quantified using ImageJ. The expected non-skipped product has a size of 408 bp (KM155) and 475 bp (DM8036), and the skip product of 175 bp (KM155) or 242 bp (DM8036), respectively.
Immortalized human myoblasts from non-DMD donors (KM155) were cultured as described above in the Methods (as performed in Examples 1-6).
RNA was isolated with the TRIsure Isolation Reagent (Bioline) and chloroform extraction; isopropanol precipitation of RNA from the aqueous phase was performed as known to someone skilled in the art. […]

On to “M23D: PMO 5′-GGCCAAACCTCGGCTTACCTGAAAT-3′ (SEQ ID NO: 3) that induces exon 23 skipping of mouse dystrophin (all phosphorodiamidate morpholino (PMO); further chemistry not fully specified)”, for which the “exon 23 skip” value in the data set on dystrophin exon 23 (500 nM M23D alone (0 nM conjugate), Example 3) was found to be 5%. Moreover, the “exon 23 skip activity” value in the data set with dystrophin exon 23 (500 nM M23D alone, Example 8, FIG. 20C) is listed as “no exon skip activity”.
Consider “DMD-PMO: PMO 5′-CTCCAACATCAAGGAAGATGGCATTTCTAG-3′ (SEQ ID NO: 2); exon 51 skipping of human dystrophin; same sequence but not 5′-modifications as eteplirsen (all phosphorodiamidate morpholino (PMO))”, for which the “% exon skipping (Femto)” value is recorded as 0% in the data set on dystrophin exon 51 (0.08 μM DMD oligo); 0% in the data set on dystrophin exon 51 (0.31 μM DMD oligo); 0% in the data set with dystrophin exon 51 (1.25 μM DMD oligo); 0% in the data set with dystrophin exon 51 (5 μM DMD oligo); 4% in the data set with dystrophin exon 51 (20 μM DMD oligo).
In the case of “DMD-ASO: 2′O-methyl-phosporothioate antisense oligonucleotide 5′-UCAAGGAAGAUGGCAUUUCU-3′ (SEQ ID NO: 1); exon 51 skipping of human dystrophin; same sequence and chemistry as drisapersen (antisense mU*mC*mA*mA*mG*mG*mA*mA*mG*mA*mU*mG*mG*mC*mA*mU*mU*mU*mC*mU; further chemistry not fully specified)”, the “% exon skipping (Lab-on-a-chip)” value with dystrophin exon 51 (0.08 μM DMD oligo) came out at 0%; in the data set on dystrophin exon 51 (0.31 μM DMD oligo) it was 0%; with dystrophin exon 51 (1.25 μM DMD oligo), 0%; in the data set with dystrophin exon 51 (5 μM DMD oligo), 1%.
